Experimental data reported in ChEMBL document CHEMBL1150850, “Cytotoxic principles from Ventilago leiocarpa” (J Nat Prod, 2001).

How the values were obtained:
HeLa = experiment: Inhibition of human HeLa cell proliferation assessed as [3H]thymidine incorporation after 3 days by scintillation counting; assay type: functional, cell-based
Vero = experiment: Inhibition of african green monkey Vero cell proliferation assessed as [3H]thymidine incorporation after 3 days by scintillation counting; assay type: cell-based; details: Chlorocebus sabaeus
K562 = experiment: Inhibition of human K562 cell proliferation assessed as [3H]thymidine incorporation after 3 days by scintillation counting; assay type: functional, cell-based
Raji = experiment: Inhibition of human Raji cell proliferation assessed as [3H]thymidine incorporation after 3 days by scintillation counting; assay type: functional, cell-based
WISH = experiment: Inhibition of human WISH cell proliferation assessed as [3H]thymidine incorporation after 3 days by scintillation counting; assay type: functional, cell-based
Calu-1 = experiment: Inhibition of human Calu1 cell proliferation assessed as [3H]thymidine incorporation after 3 days by scintillation counting; assay type: functional, cell-based

Structure (SMILES)	IC50 (HeLa)	IC50 (K562)	IC50 (Raji)	IC50 (Calu-1)	IC50 (Vero)	IC50 (WISH)
COC1=C(O)C(=O)c2c(cc3c(c2O)C(C)OC(C)C3)C1=O (configuration not stated) [VENTILOQUINONE I]	> 100 µM	> 100 µM	> 100 µM	> 100 µM	> 100 µM	> 100 µM
COc1c(O)cc2c(c1OC)C(=O)c1c(cc(C)c(O)c1O)C2=O	> 100 µM	> 100 µM	> 100 µM	> 100 µM	> 100 µM	> 100 µM
O=C1c2c(O)cc(O)cc2O[C@H](c2ccc(O)cc2)[C@H]1O [DIHYDROKAEMPFEROL]	> 100 µM	> 100 µM	> 100 µM	> 100 µM	> 100 µM	> 100 µM
CC1(C)CC[C@]2(C)CC=C3[C@]4(C)CC[C@H]5C(C)(C)[C@@H](O)CC[C@]5(C)[C@H]4CC[C@@]3(C)[C@@H]2C1 [TARAXEROL]	> 100 µM	> 100 µM	> 100 µM	> 100 µM	> 100 µM	> 100 µM

More lines, main results first:

IC50 (HeLa)	IC50 (K562)	IC50 (Raji)	IC50 (Calu-1)	Structure (SMILES)	IC50 (Vero)	IC50 (WISH)
> 100 µM	> 100 µM	> 100 µM	> 100 µM	Cc1cc(O)c2c(c1O)C(=O)c1cccc(O)c1C2=O [ISLANDICIN]	> 100 µM	> 100 µM
> 100 µM	> 100 µM	> 100 µM	> 100 µM	Cc1cc(O)c2c(c1)C(=O)c1cccc(O)c1C2=O [CHRYSOPHANOL]	> 100 µM	> 100 µM
> 100 µM	> 100 µM	> 100 µM	> 100 µM	Cc1cc(O)c2c(c1O)C(=O)c1cc(O)cc(O)c1C2=O [CATENARIN]	> 100 µM	> 100 µM
